Like-named read-outs stand apart in the source and are kept apart here.
Columns and labels:
KRas G12D mutant = target: T1, KRas G12D mutant (Homo sapiens, UniProt P01116, G12D); assay: Ras GTP binding domain inhibition assay (labeled-GTP competition, cell-free)
T1 construct: made in house
Procedure, shortened: (§1)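 His-tagged protein immobilized on Ni-coated wells overnight at 4 °C. Compounds (20 μM single point or serial dilution for IC50) incubated 3 h at RT, ± Sos (residues 556-1049, 10-30 μg/mL) during the final hour. Cy3- or Cy5-GTP (100 nM) then added for 45 min; bound label read by fluorescence after washing.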

KRas G12C mutant = target: T2, KRas G12C mutant (Homo sapiens, UniProt P01116, G12C); assay: as above
T2 construct: made in house
Procedure, shortened: as §1

KRas Q61H mutant = target: T3, KRas Q61H mutant (Homo sapiens, UniProt P01116, Q61H); assay: as above
T3 construct: made in house
Procedure, shortened: as §1

Rho-A = Rho-A (Homo sapiens, UniProt P61586); assay: as above; parameters: made in house
Procedure, shortened: as §1

KRas wild type = KRas wild type (Homo sapiens, UniProt P01116); assay: as above; parameters: made in house
Procedure, shortened: as §1

Rac-1 = Rac-1 (Homo sapiens, UniProt P63000); assay: as above; parameters: made in house
Procedure, shortened: as §1

[1] = test system: MIA-PaCa-2 pancreatic cancer cell line (KRAS G12C); assay: Cell proliferation assay (CellTiter 96 Aqueous One); type: cell-based; conditions: Homo sapiens; for IC50: MIA PaCa-2, MIA PaCa-2; for inhibition at 10 µM: MIA PaCa-2, read-out: % inh cell proliferation (10 μM) in MIA PaCa-2
Procedure, shortened: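 Percent inhibition of proliferation is derived from MTS absorbance data. Cells seeded at 2000–5000 per well were grown overnight before treatment. Compounds, at 10 μM final or in dilution series, stayed on cells for 2–4 days in medium containing 10% FBS and 0.3% DMSO.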

[2] = with SOS, read-out: KRas G12D mutant + SOS: % inh.
[3] = without SOS, read-out: KRas G12D mutant: % inh.
[4] = with SOS, read-out: KRas G12C mutant + SOS: % inh.
[5] = without SOS, read-out: KRas G12C mutant: % inh.
[6] = with SOS, read-out: KRas Q61H mutant + SOS: % inh.
[7] = without SOS, read-out: KRas Q61H mutant: % inh.
[8] = with SOS, read-out: Rho-A + SOS: % inh.
[9] = without SOS, read-out: Rho-A: % inh.
[10] = with SOS, read-out: KRas wild type + SOS: % inh.
[11] = without SOS, read-out: KRas wild type: % inh.
[12] = with SOS, read-out: Rac-1 + SOS: % inh.
[13] = without SOS, read-out: Rac-1: % inh.

Compound	inhibition at 20 µM (KRas G12D mutant; [2])	inhibition at 20 µM (KRas G12D mutant; [3])	inhibition at 20 µM (KRas G12C mutant; [4])	inhibition at 20 µM (KRas G12C mutant; [5])	inhibition at 20 µM (KRas Q61H mutant; [6])	inhibition at 20 µM (KRas Q61H mutant; [7])	IC50 (KRas Q61H mutant; with SOS)	inhibition at 20 µM (Rho-A; [8])	inhibition at 20 µM (Rho-A; [9])	inhibition at 20 µM (KRas wild type; [10])	inhibition at 20 µM (KRas wild type; [11])	inhibition at 20 µM (Rac-1; [12])	inhibition at 20 µM (Rac-1; [13])	IC50 [1]	inhibition at 10 µM [1]
CO[C@H]1CC[C@@H](Nc2nc(-c3nccn3C)nc3sccc23)C1 (racemic) [Compound 10, Rac-N-((1R,3S)-3-methoxycyclopentyl)-2-(1-methyl-1H-imidazol-2-yl)thieno[2,3-d]pyrimidin-4-amine]	51 to 75%	51 to 75%	76 to 100%	76 to 100%	76 to 100%	51 to 75%	5 to 10 µM	76 to 100%	76 to 100%	76 to 100%	51 to 75%	76 to 100%	76 to 100%	> 10 µM	26 to 50%
COCCNc1nc(-c2nccn2C)nc2sc(-c3ccn(C(C)C)n3)c(C)c12 [Compound 35, 6-(1-Isopropyl-1H-pyrazol-3-yl)-N-(2-methoxyethyl)-5-methyl-2-(1-methyl-1H-imidazol-2-yl)thieno[2,3-d]pyrimidin-4-amine]	76 to 100%	76 to 100%	76 to 100%	76 to 100%	76 to 100%	76 to 100%	–	76 to 100%	76 to 100%	76 to 100%	76 to 100%	76 to 100%	76 to 100%	5 to 10 µM	76 to 100%
COCC1CCN(c2nc(-c3ccccn3)nc3sc(-c4ccn(C(C)C)n4)c(C)c23)C1 (racemic) [Compound 71, Rac-6-(1-Isopropyl-1H-pyrazol-3-yl)-4-(3-(methoxymethyl)pyrrolidin-1-yl)-5-methyl-2-(pyridin-2-yl)thieno[2,3-d]pyrimidine]	1 to 25%	0%	26 to 50%	26 to 50%	51 to 75%	26 to 50%	–	–	76 to 100%	26 to 50%	26 to 50%	–	0%	5 to 10 µM	76 to 100%

Now from value to compound, other results behind:

inhibition at 20 µM (KRas G12D mutant; [2])	inhibition at 20 µM (KRas G12D mutant; [3])	inhibition at 20 µM (KRas G12C mutant; [4])	inhibition at 20 µM (KRas G12C mutant; [5])	inhibition at 20 µM (KRas Q61H mutant; [6])	inhibition at 20 µM (KRas Q61H mutant; [7])	IC50 (KRas Q61H mutant; with SOS)	inhibition at 20 µM (Rho-A; [8])	inhibition at 20 µM (Rho-A; [9])	inhibition at 20 µM (KRas wild type; [10])	inhibition at 20 µM (KRas wild type; [11])	inhibition at 20 µM (Rac-1; [12])	inhibition at 20 µM (Rac-1; [13])	IC50 [1]	Compound	inhibition at 10 µM [1]
26 to 50%	51 to 75%	0%	26 to 50%	26 to 50%	1 to 25%	–	–	26 to 50%	26 to 50%	26 to 50%	–	1 to 25%	5 to 10 µM	COC1CCCN(c2nc(-c3nccn3C)nc3sc(-c4ccn(C(C)C)n4)c(-c4ccccc4)c23)C1 (racemic) [Compound 77, Rac-6-(1-isopropyl-1H-pyrazol-3-yl)-4-(3-methoxypiperidin-1-yl)-2-(1-methyl-1H-imidazol-2-yl)-5-phenylthieno[2,3-d]pyrimidine]	76 to 100%
76 to 100%	51 to 75%	76 to 100%	76 to 100%	76 to 100%	76 to 100%	1 to 4.99 µM	76 to 100%	76 to 100%	76 to 100%	76 to 100%	76 to 100%	76 to 100%	1 to 4.99 µM	COCCn1ccnc1-c1nc(N[C@H]2C[C@@H](OC)C2)c2c(-c3ccccc3)c(-c3ccn(C)n3)sc2n1 [Compound 7, N-((1s,3s)-3-Methoxycyclobutyl)-2-(1-(2-methoxyethyl)-1H-imidazol-2-yl)-6-(1-methyl-1H-pyrazol-3-yl)-5-phenylthieno[2,3-d]pyrimidin-4-amine]	76 to 100%
51 to 75%	76 to 100%	76 to 100%	76 to 100%	76 to 100%	76 to 100%	–	76 to 100%	51 to 75%	76 to 100%	51 to 75%	51 to 75%	51 to 75%	5 to 10 µM	CO[C@H]1C[C@@H](Nc2nc(-c3nccn3C)nc3sc(-c4ccn(C(C)C)n4)c(C)c23)C[C@H]1OC [Compound 42, N-((1r,3R,4S)-3,4-Dimethoxycyclopentyl)-6-(1-isopropyl-1H-pyrazol-3-yl)-5-methyl-2-(1-methyl-1H-imidazol-2-yl)thieno[2,3-d]pyrimidin-4-amine]	51 to 75%

From patent US20230227466A1, “SUBSTITUTED THIENOPYRIMIDINES THAT INTERACT WITH THE RAS SUPERFAMILY FOR THE TREATMENT OF CANCERS, INFLAMMATORY DISEASES, RASOPATHIES, AND FIBROTIC DISEASE” (SHY Therapeutics, LLC, priority 2020, published 2023)
